Here are results for 1 molecule from patent US12673924B2, “Valiolamine derivatives as glucosidase inhibitors” (Emergent Product Development Gaithersburg Inc., priority 2021, dated 2026).

Bounds are passed on as bounds.

What all share (format): biochemical
One experiment addresses T1, rat sucrase (Rattus norvegicus, UniProt P23739).
T1 construct: partially purified alpha-glucosidase from intestinal rat powder; from tissue; host or cells: rat intestinal powder
The experiment can be described thus: Intestinal alpha-glucosidase assay, sucrose substrate. The conditions noted are these: alpha-glucosidase from intestinal rat powder. The procedure: (§1) Intestinal alpha-glucosidases (rat maltase and sucrase): Intestinal alpha-glucosidases act upon 1,4-alpha-glucoside bonds, breaking down disaccharides to glucose. To perform this assay, partially purified alpha-glucosidase from intestinal rat powder was incubated for 60 minutes at 37° C. with multiple dilutions of test compounds. Maltose or Sucrose respectively was then introduced as substrate to the mixture and incubated for 30 minutes at 37° C. The reaction was stopped by a 5-minute incubation at 90° C. and the resultant glucose production is detected using Sigma's Glucose GO Kit. Percent inhibition was then plotted as a function of concentration for each test compound. The IC50 was determined using a 4-PL curve fit and serves as the measure of relative inhibition of each test compound (see Table 4). Table 4 summarizes the results of IC50s for each molecule against each tested glucosidase enzyme.

The next experiment concerns the target rat maltase. The experiment can be described thus: Intestinal alpha-glucosidase assay, maltose substrate. The conditions noted are these: alpha-glucosidase from intestinal rat powder. The procedure: as §1
The next experiment has as its target T2, recombinant human GBA (Homo sapiens, UniProt P04062).
T2 construct: purchased
T2 sequence (P04062 40-536): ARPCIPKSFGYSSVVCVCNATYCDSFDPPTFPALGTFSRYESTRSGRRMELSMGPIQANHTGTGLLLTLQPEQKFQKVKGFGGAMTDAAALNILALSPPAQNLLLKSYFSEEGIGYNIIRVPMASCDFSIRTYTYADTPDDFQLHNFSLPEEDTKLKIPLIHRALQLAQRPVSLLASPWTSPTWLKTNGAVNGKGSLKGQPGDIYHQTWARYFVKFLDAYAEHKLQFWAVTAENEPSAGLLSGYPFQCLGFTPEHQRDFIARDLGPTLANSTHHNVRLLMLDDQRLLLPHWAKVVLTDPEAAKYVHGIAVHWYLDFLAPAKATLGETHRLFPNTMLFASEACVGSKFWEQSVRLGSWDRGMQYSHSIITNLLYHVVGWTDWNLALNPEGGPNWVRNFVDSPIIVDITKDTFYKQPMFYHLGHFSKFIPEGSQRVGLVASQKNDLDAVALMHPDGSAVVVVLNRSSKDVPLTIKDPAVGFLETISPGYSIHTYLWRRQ
The experiment can be described thus: Beta-glucocerebrosidase (GBA) inhibition assay. The conditions noted are these: 4-methylumbelliferyl-beta-D-pyranoside substrate, 4-PL curve fit. The protocol: Beta-glucocerebrosidase (GBA, also referred to glucosylceramidase): To analyze inhibitory effects of a test compound, commercially available recombinant human GBA was incubated with multiple dilutions of test compound for 60 minutes at 37° C. 4-methylumbelliferyl-beta-D-pyranoside was then introduced to the mixture as substrate. Following incubation for 60 minutes at 37° C., 1,4-methyllumbelliferone was generated, and the reaction was stopped with the stop solution (0.5 M glycine; 0.3 M NaOH, pH 10). 1,4-methyllumbelliferone was detected by fluorescence (excitation at 365 nm, emission at 440 nm). Relative fluorescence is compared to untreated enzymatic activity and test compound concentration is then plotted as a function of percent inhibition. The IC50 was determined using a 4-PL curve fit as the measure of relative inhibitory activity of each test compound (see Table 4).

T1 sequence (P23739 whole entry): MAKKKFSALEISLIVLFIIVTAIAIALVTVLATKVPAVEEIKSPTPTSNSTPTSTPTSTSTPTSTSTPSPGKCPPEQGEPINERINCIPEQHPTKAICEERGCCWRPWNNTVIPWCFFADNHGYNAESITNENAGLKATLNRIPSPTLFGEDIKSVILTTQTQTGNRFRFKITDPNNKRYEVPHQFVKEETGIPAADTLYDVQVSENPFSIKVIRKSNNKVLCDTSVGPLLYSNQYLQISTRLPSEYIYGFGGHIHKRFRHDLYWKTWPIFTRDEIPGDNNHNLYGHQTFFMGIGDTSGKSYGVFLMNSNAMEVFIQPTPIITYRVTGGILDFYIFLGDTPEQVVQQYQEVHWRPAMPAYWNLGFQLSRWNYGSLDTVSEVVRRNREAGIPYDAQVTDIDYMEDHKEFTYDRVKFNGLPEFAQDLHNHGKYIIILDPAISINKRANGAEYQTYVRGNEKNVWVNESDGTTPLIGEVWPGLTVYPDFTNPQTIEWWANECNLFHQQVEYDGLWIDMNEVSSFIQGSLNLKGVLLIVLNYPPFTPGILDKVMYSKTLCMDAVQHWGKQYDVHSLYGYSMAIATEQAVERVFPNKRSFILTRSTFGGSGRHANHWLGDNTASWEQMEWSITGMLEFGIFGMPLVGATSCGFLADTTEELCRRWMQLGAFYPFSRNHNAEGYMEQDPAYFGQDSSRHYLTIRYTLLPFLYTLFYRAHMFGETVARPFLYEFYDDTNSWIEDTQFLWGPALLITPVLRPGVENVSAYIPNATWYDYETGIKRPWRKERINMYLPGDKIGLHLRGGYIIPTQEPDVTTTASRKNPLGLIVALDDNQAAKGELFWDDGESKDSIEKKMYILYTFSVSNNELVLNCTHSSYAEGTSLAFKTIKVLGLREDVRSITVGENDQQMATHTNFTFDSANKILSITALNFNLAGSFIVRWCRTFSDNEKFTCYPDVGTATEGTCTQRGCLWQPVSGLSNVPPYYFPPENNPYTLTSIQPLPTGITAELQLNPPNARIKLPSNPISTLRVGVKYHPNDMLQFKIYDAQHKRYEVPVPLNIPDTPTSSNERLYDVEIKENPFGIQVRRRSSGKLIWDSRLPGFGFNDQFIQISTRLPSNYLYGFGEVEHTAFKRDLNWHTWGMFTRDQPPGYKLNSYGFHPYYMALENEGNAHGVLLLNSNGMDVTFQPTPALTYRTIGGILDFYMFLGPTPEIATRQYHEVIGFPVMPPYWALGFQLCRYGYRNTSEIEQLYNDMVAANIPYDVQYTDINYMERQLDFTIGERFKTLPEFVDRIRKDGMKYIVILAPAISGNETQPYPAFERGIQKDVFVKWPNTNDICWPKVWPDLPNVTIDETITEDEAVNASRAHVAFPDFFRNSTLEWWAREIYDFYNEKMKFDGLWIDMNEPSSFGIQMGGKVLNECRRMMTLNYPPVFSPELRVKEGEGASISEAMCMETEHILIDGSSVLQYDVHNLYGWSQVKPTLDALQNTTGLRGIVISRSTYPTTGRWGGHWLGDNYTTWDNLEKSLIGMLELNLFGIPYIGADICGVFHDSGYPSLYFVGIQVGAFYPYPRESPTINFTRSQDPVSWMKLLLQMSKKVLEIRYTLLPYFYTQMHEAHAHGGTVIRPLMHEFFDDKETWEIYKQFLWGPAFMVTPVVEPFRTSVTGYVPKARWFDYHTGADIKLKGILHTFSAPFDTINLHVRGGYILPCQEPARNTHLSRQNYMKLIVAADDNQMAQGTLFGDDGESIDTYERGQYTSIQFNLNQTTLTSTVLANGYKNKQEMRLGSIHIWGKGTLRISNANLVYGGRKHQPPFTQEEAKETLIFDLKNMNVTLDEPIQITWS

Take `CCCCN[C@H]1C[C@](O)(CO)[C@@H](O)[C@H](O)[C@H]1O` [Compound 1, (1S,2S,3R,4S,5S)-5-(butylamino)-1-(hydroxymethyl)cyclohexane-1,2,3,4-tetraol]: the IC50 against rat sucrase was 70 nM; at rat maltase, 1470 nM; at recombinant human GBA it was above 1 mM.
